This passage reports viability results from article PMC12040169 (PLOS Biology, 2025).

Each structure is given as a SMILES string.

One data set is described as follows: in vitro. The following applies: human, hela cells, % viability.
Regarding `COc1ccccc1NC(=O)C1CN(S(=O)(=O)c2ccccc2)CCN1S(=O)(=O)c1ccccc1` (centres unmarked) [CBK262673], the viability – broadly, a read-out of living cells in per cent, often relative to untreated cells – at 28.5 h, 10 µM came to 93.5%.
As for `COc1cc(/C=C2\SC(=N)NC2=O)ccc1OCC(=O)O` [CBK262675], the viability at 28.5 h, 10 µM was 88.4%.
As for `COc1ccc(C2=NN(c3ccccc3)C(c3ccc(OC)c(OC)c3C(=O)O)C2)cc1` (centres unmarked) [CBK262679], the viability at 28.5 h, 10 µM was 89.3%.
In the case of `O=C(O)CN(c1cccc([N+](=O)[O-])c1)S(=O)(=O)c1ccccc1` [CBK262684], the viability at 28.5 h, 10 µM is 85.6%.
Turning to `O=C(C1CN(S(=O)(=O)c2ccccc2)CCN1S(=O)(=O)c1ccccc1)N1CCCCC1` (centres unmarked) [CBK262686], the viability at 28.5 h, 10 µM turned out to be 86.4%.
With `O=C1C(=CNCc2ccco2)C(=O)c2ccccc21` [CBK262688], the viability at 28.5 h, 10 µM was determined as 115%.
Still for that read-out and setting: to `Cc1cc2c([nH]c3ccccc32)c(C)n1` [CBK262689] belongs 104%; to `Cc1ccc(NC(=O)C2CN(S(=O)(=O)c3ccccc3)CCN2S(=O)(=O)c2ccccc2)c(C)c1` (centres unmarked) [CBK262693], 83.8%.
As to `N#CC(C(N)=O)C(c1ccc(Br)cc1)c1c(-c2ccccc2)nn(-c2nc(-c3ccccc3)cs2)c1O` (centres unmarked) [CBK262697], the viability at 28.5 h, 10 µM was determined as 107%.
For the compound `COc1ccc(C(C)=O)cc1Cc1c(O)nc(SC)nc1O` [CBK262699], the viability at 28.5 h, 10 µM came to 93.9%.
On the same count and under the same terms, to `CC(C)Oc1ccccc1-c1nnc(SCC(=O)O)[nH]1` [CBK262702] belongs 81.7%; to `Cc1ccc(N(CC(=O)Nc2cccc3ccccc23)S(=O)(=O)c2ccc(F)cc2)cc1` [CBK262707], 94.7%; to `COc1ccc(/C=N/NC(=O)c2ccc(CN3CCOCC3)cc2)cc1[N+](=O)[O-]` [CBK262708], 93%.
Same read-out and setting: to `CC(=O)c1c(C)nn2c3ccccc3n(CCN3CCOCC3)c12` [CBK262709C] belongs 115%.
For `COc1ccc(/C=C2\S/C(=N\Cc3ccccc3)N(Cc3ccccc3)C2=O)cc1C(=O)O` [CBK262715], the viability at 28.5 h, 10 µM worked out at 104%.
The same measure, in the same setting: the figure for `O=[N+]([O-])c1ccc2c(c1)C=C1CCCCC1(NCc1ccccc1)O2` (centres unmarked) [CBK262716] is 98.8%; for `COc1ccc(CCN2C(=O)c3ccccc3C2(O)c2ncc[nH]2)cc1OC` (centres unmarked) [CBK262717] it is 103%.
For the compound `COc1ccccc1NC(=O)CN(c1ccc(C)cc1)S(=O)(=O)c1ccc(F)cc1` [CBK262718], the viability at 28.5 h, 10 µM is 91.2%.
Same read-out and setting: the figure for `Cc1[nH]nc(Nc2ccc(C(=O)O)cc2)c1[N+](=O)[O-]` [CBK262726] is 80%; for `CN1CCC(=NNC(=O)CN(c2cccc([N+](=O)[O-])c2)S(=O)(=O)c2ccccc2)CC1` [CBK262727] it is 90.3%; for `CN1CCC(=NNC(=O)c2ccc(CN(c3ccccc3)S(C)(=O)=O)cc2)CC1` [CBK262728] it is 97.8%.
Still for that read-out and setting: the figure for `COc1ccc(N(CC(=O)O)S(=O)(=O)c2ccccc2[N+](=O)[O-])c(OC)c1` [CBK262729] is 92.6%; for `O=C(CN1CCOCC1)N/N=C/c1cc2ccccc2nc1Cl` [CBK262732] it is 101%.
With `COc1cc(Br)c(/C=C(/C#N)C(=O)Nc2ccc(O)cc2)cc1OC` [CBK262733], the viability at 28.5 h, 10 µM is 79.9%.
In the case of `CCc1ccc2[nH]c3nc(NN)nnc3c2c1` [CBK262734], the viability at 28.5 h, 10 µM is 65.1%.
On the same count and under the same terms, to `CCn1cc(C(=O)NN)c(=O)c2cc(F)c(NN)cc21` [CBK262735] belongs 79.1%; to `Cc1ccc(S(=O)(=O)N2/C(=C\COc3ccc(Cl)cc3Cl)C(N3CCOCC3)c3ccccc32)cc1` (centres unmarked) [CBK262740], 87.6%.
Still for that read-out and setting: the figure for `CCCOc1ccc(CCNc2ncnc(N)n2)cc1` [CBK262744] is 90.1%.
Still for that read-out and setting: the figure for `CS(=O)(=O)N(Cc1ccccc1)c1ccc(C(=O)Nc2ccccc2Cl)cc1` [CBK262745] is 86.9%; for `Cc1[nH]nc(Nc2ccc(I)cc2)c1[N+](=O)[O-]` [CBK262748] it is 86.2%.
Take `CN1CCC(=NNC(=O)c2ccc(CN3CCOCC3)cc2)CC1` [CBK262749]: the viability at 28.5 h, 10 µM worked out at 86.6%.
Still for that read-out and setting: the figure for `CC(C)c1cccc(C(C)C)c1OCCNCCO` [CBK262750] is 89.3%; for `COc1ccc(/C=C(/C#N)C(=O)Nc2cccc(C)c2C)cc1C(=O)O` [CBK262751] it is 87.4%; for `C/C(=N\NC(=O)c1ccc(CN2CCOCC2)cc1)c1ccc2c(c1)OCCO2` [CBK262755] it is 92%.
Still for that read-out and setting: the figure for `NCCNc1ccc([N+](=O)[O-])c(NCc2ccccc2)c1` [CBK262757C] is 83.7%; for `COc1cccc(/C=N/NC(=O)CSc2nnc(C)n2-c2ccccc2)c1O` [CBK262758] it is 80.7%; for `O=C(N/N=C\c1ccc(OCc2ccccc2)cc1)C1COc2cc3ccccc3cc2O1` (centres unmarked) [CBK262764] it is 95.6%.
`CN(C)c1ccc(NC(=O)CC2Nc3ccccc3NC2=O)cc1` (centres unmarked) [CBK262765]: the viability at 28.5 h, 10 µM worked out at 87.1%.
Same read-out and setting: to `O=C(O)c1ccccc1-c1ccccc1C(=O)Nc1cccc(-c2nc3ccccc3o2)c1` [CBK262767] belongs 103%.
Same read-out and setting: to `Cc1nnc(SCC(=O)N/N=C/c2cc([N+](=O)[O-])ccc2O)n1-c1ccccc1` [CBK262768] belongs 89.5%; to `O=C(O)CCCCCN1C(=O)/C(=C/c2ccc(O)c(O)c2)SC1=S` [CBK262771], 91%; to `O=c1oc(-c2cccc(F)c2)nc2cc(Cc3ccc4c(=O)oc(-c5cccc(F)c5)nc4c3)ccc12` [CBK262775], 121%.
`O=C(NCC1CCCO1)c1ccc2c(c1)C(=O)N(c1ccccc1-c1ccccc1)C2=O` (centres unmarked) [CBK262777]: the viability at 28.5 h, 10 µM was found to be 86%.
Consider `COc1ccc(/C=C2\S/C(=N/N=C/c3ccc(OC)cc3)N(c3ccc(O)cc3)C2=O)cc1` [CBK262780], for which the viability at 28.5 h, 10 µM was 87.7%.
Same read-out and setting: the figure for `CCCc1[nH]n(-c2ccc([N+](=O)[O-])cc2)c(=O)c1/C=N/N1CCN(C)CC1` [CBK262781] is 92.8%; for `Cc1ccc(N2C(=O)c3ccc(S(=O)(=O)c4cccc(C(=O)O)c4)cc3C2=O)c(C)c1` [CBK262783] it is 86.2%; for `O=C(O)CCN1C(=O)/C(=C/c2ccc(C(=O)O)cc2)SC1=S` [CBK262785] it is 93.2%.
Same read-out and setting: the figure for `O=C(CSc1nnc(-c2ccncc2)n1-c1ccccc1)N/N=C/c1ccccc1O` [CBK262788] is 85%; for `COc1ccc(/C=N/NC(=O)Cc2cccn2C)cc1[N+](=O)[O-]` [CBK262789] it is 99.1%.
On the same count and under the same terms, to `CC(=O)Nc1ccc(/C=N/NC(=O)c2nnn(-c3nonc3N)c2-c2ccccc2)cc1` [CBK262790] belongs 94.9%; to `O=C(CSc1nnc(-c2ccccc2)n1-c1ccccc1)N/N=C/c1coc2ccccc2c1=O` [CBK262791], 97.6%.
In the case of `Cc1ccc(C(=O)Nc2cccc(-c3nc4ncccc4o3)c2C)cc1[N+](=O)[O-]` [CBK262793], the viability at 28.5 h, 10 µM is 94.3%.
Turning to `O=c1[nH]nc(SCCOc2c(Cl)c(Cl)c(Cl)c(Cl)c2Cl)c(=O)[nH]1` [CBK262794], the viability at 28.5 h, 10 µM was found to be 91%.
Take `Cc1ccc(C(=O)O)cc1NC(=O)c1cccc(C(=O)Nc2cc(C(=O)O)ccc2C)c1` [CBK262797]: the viability at 28.5 h, 10 µM was determined as 97.5%.
In the case of `O=C(N/N=C/c1c[nH]c2ccc(Br)cc12)c1ccncc1` [CBK262798], the viability at 28.5 h, 10 µM was found to be 116%.
For `O=C1/C(=C/c2ccccc2)S/C(=N/N=C/c2ccccc2)N1c1ccc(O)cc1` [CBK262803], the viability at 28.5 h, 10 µM amounted to 89.6%.
The same measure, in the same setting: to `COc1ccc(/C(C)=N/NC(=N)SC2CC(=O)N(c3ccc(C(=O)O)cc3)C2=O)cc1F` (centres unmarked) [CBK262805] belongs 107%; to `CC(=O)ON=C1c2cc(S(=O)(=O)N(C)C)ccc2-c2ccc(S(=O)(=O)N(C)C)cc21` [CBK262807], 87.1%; to `Cc1cc(O)cc(O)c1/C=N\NC(=O)C1COc2cc3ccccc3cc2O1` (centres unmarked) [CBK262809], 80.4%.
Consider `O=S(=O)(NCC(c1ccccc1)N1CCNCC1)c1ccccc1` (centres unmarked) [CBK262813], for which the viability at 28.5 h, 10 µM was determined as 105%.
As to `O=C(N/N=C/c1ccc(Cl)cc1Cl)c1nc(-c2ccccc2)cc(-c2ccccc2)n1` [CBK262814], the viability at 28.5 h, 10 µM stood at 90.1%.
As for `Nc1nonc1-n1nnc(C(=O)N/N=C/c2nc3ccccc3[nH]2)c1-c1ccccc1` [CBK262815], the viability at 28.5 h, 10 µM is 93.8%.
Same read-out and setting: to `O=C(CSc1nnc(-c2ccncc2)n1-c1ccccc1)N/N=C/c1c[nH]c2ccc(Br)cc12` [CBK262816] belongs 91.5%.
On to `O=[N+]([O-])c1ccc(OC(CNS(=O)(=O)c2ccc(Cl)cc2)c2ccccc2)cc1` (centres unmarked) [CBK262817], for which the viability at 28.5 h, 10 µM was found to be 93%.
Same read-out and setting: the figure for `CCOc1ccc(C(=O)Nc2ccc(-c3nc4cc(C)c(C)cc4o3)cc2)cc1[N+](=O)[O-]` [CBK262818] is 94.2%.
`NC(=O)c1c(NC(=O)COc2ccccc2[N+](=O)[O-])sc2c1CCC2` [CBK262819]: the viability at 28.5 h, 10 µM was 105%.
Still for that read-out and setting: to `Cc1cc(C(=O)Nc2ccc(-c3nc4ccccc4s3)c(O)c2)ccc1[N+](=O)[O-]` [CBK262820] belongs 92.6%; to `O=C(CCN1C(=O)/C(=C/c2ccc(F)cc2)SC1=S)NNC(=O)c1ccncc1` [CBK262821], 92.4%; to `O=C(O)c1ccc(CN2C(=O)c3ccc(C(=O)O)cc3C2=O)cc1` [CBK262823], 93.7%.
Consider `COc1cc(Cl)cc(/C=N\NC(=O)C2C(=O)NCC2c2ccccc2)c1O` (centres unmarked) [CBK262825], for which the viability at 28.5 h, 10 µM is 91.8%.
The same measure, in the same setting: the figure for `C/C(=N\NC(=O)c1nc(-c2ccccc2)cc(-c2ccccc2)n1)c1ccc(F)cc1` [CBK262826] is 110%.
The same measure, in the same setting: the figure for `CC1CCCN(CC(O)COCc2ccc3c(c2)OCO3)C1` (centres unmarked) [CBK262830C] is 105%.

Still in this data set, the particulars now being: human, hela cells, % viability, bulk resorufin, single well.
As for `O=C(NNc1c(Cl)cccc1Cl)C(O)(c1ccccc1)c1ccccc1` [CBK262739], the viability at 28.5 h, 10 µM amounted to 101%.
Take `O=[N+]([O-])c1ccc(OC/C=C2\Oc3ccc([N+](=O)[O-])cc3C2N2CCOCC2)cc1` (centres unmarked) [CBK262743]: the viability at 28.5 h, 10 µM was 91.8%.
